Experimental data: paper PMC5789597, “Cytotoxicity of seputhecarpan D, thonningiol and 12 other phytochemicals from African flora towards human carcinoma cells” (BMC Complementary and Alternative Medicine, 2018)
Like-named read-outs stand apart in the source and are kept apart here.

Columns and labels:
[1] = tested on: DLD-1 colorectal adenocarcinoma cells; assay: Neutral red (NR) uptake cytotoxicity assay, DLD-1; assay type: cell-based, human; details: for IC50: Homo sapiens, DLD-1, NR assay, 72 h incubation; for selectivity index, DLD-1: IC50 in CRL2120 normal fibroblasts divided by IC50 in DLD-1
Source text: (§1) DMSO at 0.1% was used as solvent control.

[2] = tested on: normal CRL2120 human skin fibroblasts; assay: Neutral red (NR) uptake cytotoxicity assay, normal fibroblasts; assay type: cell-based; details: Skin fibroblast, 72 h incubation
Source text: as §1

[3] = Neutral red (NR) uptake cytotoxicity assay, Caco-2; details: human, Caco-2
Source text: (§3) Four human carcinoma cell lines and one normal cell line were used. They were: DLD-1 and Caco-2 colorectal adenocarcinoma cell lines, HepG2 hepatocarcinoma cells, MCF-7 breast adenocarcinoma cells and the normal CRL2120 human skin fibroblasts. Caco-2 cells (from the ŞAP Institute of Ankara,Turkey andMCF-7 cells (from ATCC) provided by Prof. Dr. Tansu Koparal (Anadolu University, Eskisehir, Turkey),HepG2, DLD-1 and CRL2120 cells were obtained from American Type Culture Collection (ATCC); DMEM medium (Sigma-aldrich, Munich, Germany) was used to maintain cells as a monolayer and was supplemented with 10% fetal calf serum and 1% penicillin (100 U/mL)-streptomycin (100 μg/mL) in a humidified 5% CO2 atmosphere at 37 °C.
(§4) Dimethylsufoxide (DMSO) at less than 0.1% final concentration was used to dilute the tested samples. DMSO at 0.1% was used as solvent control. The incubation time was 72 h incubation in humidified 5% CO2 atmosphere at 37 °C, followed by NR coloration as previously described [23, 24]. ELx 808 Ultra Microplate Reader (Biotek) equipped with a 540 nm filter was used to measure the absorbance. Each experiment was performed at least three times, with three replicates each. The viability was evaluated based on a comparison with untreated cells. The IC50 values represented the sample’s concentrations required to inhibit 50% of cell proliferation and were calculated from a calibration curve by linear regression using Microsoft Excel [26] as follows: for each sample, the cell growth percentages at the different concentrations were used to draw the calibration curve with logarithmic regression obtained by 2 measuring points (one smaller and one larger than 50%) from where the IC50 value was deduced.

[4] = tested on: Caco-2 colorectal adenocarcinoma cells; assay: Neutral red (NR) uptake cytotoxicity assay, Caco-2; details: read-out: IC50 values, Caco-2
Source text: as §3, §4

[5] = tested on: MCF-7 breast adenocarcinoma cells; assay: Neutral red (NR) uptake cytotoxicity assay, MCF7; assay type: cell-based, human; details: for IC50: Homo sapiens, MCF7, NR assay, 72 h incubation; for selectivity index, MCF7: IC50 in CRL2120 normal fibroblasts divided by IC50 in MCF7
Source text: as §1

[6] = tested on: HepG2 hepatocarcinoma cells; assay: Neutral red (NR) uptake cytotoxicity assay, HepG2; assay type: cell-based, human; details: for IC50: Homo sapiens, HepG2, NR assay, 72 h incubation; for selectivity index, HepG2: IC50 in CRL2120 normal fibroblasts divided by IC50 in HepG2
Source text: as §1

in vitro = details: human, Caco-2
Source text: as §3, §4

[7] = tested on: four tested cancer cell lines (MCF-7, DLD-1, Caco-2, HepG2); assay: Neutral red (NR) uptake cytotoxicity assay, summary over the four tested cancer cell lines; assay type: cell-based; details: Homo sapiens
Source text: as §1

MCF-7 cells [8] = assay: Cell cycle analysis and detection of apoptosis by flow cytometry; assay type: cell-based, human; details: for percentages of cells in sub-G0/G1 phase: MCF-7, 2 × IC50 (as printed in text); for percentages of cells in sub-G0/G1 phase / Growth (percentage of control) Sub-G0; percentage of cells in sub-G0/G1 phase: non-treated cells 3.1%; for Growth (percentage of control) Sub-G0; percentage of cells in sub-G0/G1 phase: MCF-7, 72 h, ¼ x IC50; for cell cycle arrest (phase): MCF-7 cells, 72 h
Experimental: Cells were tested in 6-well plates (3 mL, 1 × 10^5 cells/mL) and the incubation time was 72 h in humidified 5% CO2 atmosphere at 37 °C. […] Untreated cells (control) were used for comparison with treated cells. The BD FACS Aria I Cell Sorter Flow Cytometer (Becton-Dickinson, Germany) was then used for cell cycle analysis. For each sample, 10^4 cells were counted. For PI excitation, an argon-ion laser emitting at 488 nm was used. Cytographs were analyzed using BD FACSDiva™ Flow Cytometry Software Version 6.1.2 (Becton-Dickinson).

caspase 9 in MCF-7 cells = assay: Caspase-Glo 9 assay; assay type: cell-based, human; details: MCF-7, 6 h, optimal activity generally at IC50, vs untreated control
Source text: (§2) The BioTek Synergy™ HT multi-detection microplate reader was used to measure the luminescence and Caspase activity was expressed as percentage of the untreated control.

MCF-7 cells [9] = assay: Reactive oxygen species production (H2DCFH-DA); assay type: cell-based, human; details: MCF-7, 24 h, at IC50, compared to non-treated cells
Experimental: Cells were tested in 6-well plates (3 mL, 1 × 10^5 cells/mL) and the incubation time was 24 h in humidified 5% CO2 atmosphere at 37 °C. The tested concentrations were ¼ × IC50, ½ × IC50 and IC50. Untreated cells (control) were used for comparison with treated cells. The fluorescence was measured using SpectraMax® M5 Microplate Reader (Molecular Devices, Biberach, Germany) at 480/530 nm. All experiments were performed at least in triplicates.

MCF-7 cells [10] = assay: Integrity of mitochondrial membrane potential (JC-1 staining, flow cytometry); assay type: cell-based, human; details: MCF-7, 72 h, IC50; control 6.0%
Experimental: Cells were tested in 6-well plates (3 mL, 1 × 10^5 cells/mL) and the incubation time was 72 h in humidified 5% CO2 atmosphere at 37 °C. The tested concentrations were ¼ × IC50, ½ × IC50 and IC50. Untreated cells (control) were used for comparison with treated cells. JC-1 staining was performed according to the manufacturer’s protocol as reported previously. Cells were then measured in a BD FACS Aria I Cell Sorter Flow Cytometer (Becton-Dickinson, Germany). The JC-1 signal was measured at an excitation wavelength of 561 nm (150 mW) and detected using a 586/15 nm band-pass filter. The signal was analyzed at an excitation wavelength of 640 nm (40 mW) and detected using a 730/45 nm bandpass filter. Cytographs were analyzed using BD FACSDiva™ Flow Cytometry Software Version 6.1.2 (Becton-Dickinson). All experiments were performed at least in triplicates.

[11] = tested on: caspases 3/7 in MCF-7 cells; assay: Caspase-Glo 3/7 assay; assay type: cell-based, human; details: MCF-7, 6 h, optimal activity generally at IC50, vs untreated control
Source text: as §2

[12] = all 4/4 tested cancer cell lines, read-out: IC50 values against the four tested cancer cell lines

Structure (SMILES) | IC50 [1] [µM] | IC50 [2] [µM] | selectivity ratio at 72 h [3] | IC50 ([4]; Homo sapiens, Caco-2, 72 h) [µM] | IC50 [5] [µM] | IC50 [6] [µM] | selectivity index, MCF7 [5] | selectivity index, DLD-1 [1] | selectivity ratio at 72 h (in vitro) | IC50 [7, 12] [µM] | selectivity index, HepG2 [6] | percentages of cells in sub-G0/G1 phase (MCF-7 cells [8]) [%] | Growth (percentage of control) Sub-G0; percentage of cells in sub-G0/G1 phase (MCF-7 cells [8]) [%] | cell cycle arrest (phase) (MCF-7 cells [8]) | increase of caspase 9 activity (caspase 9 in MCF-7 cells) [fold] | increase in ROS levels (MCF-7 cells [9]) [fold] | P2: cells with altered MMP (MMP depletion) (MCF-7 cells [10]) | increase of caspases 3/7 activity [11] [fold] | IC50 ([7]; 3/4 tested cancer cell lines, read-out: IC50 values in 3/4 tested cell lines) [µM] | IC50 ([4]; NR assay, 72 h incubation) [µM]
CCC(/C=C/[C@@H](C)C1CCC2C3=CCC4C[C@@H](O)CCC4(C)C3CCC21C)C(C)C (stereo partly drawn) [Compound 1, β-spinasterol] | > 97.1 | > 97.1 | > 1.39 | 69.8 ± 5.12 | > 97.1 | > 97.1 |  |  |  |  |  |  |  |  |  |  |  |  |  | 
C[C@H]1C(=O)CC[C@@H]2[C@]1(C)CC[C@H]1[C@@]2(C)CC[C@@]2(C)[C@@H]3CC(C)(C)CC[C@]3(C)CC[C@]12C [Compound 2, friedelanone] | > 93.9 | > 93.9 |  | > 93.9 | 70.8 ± 4.95 | > 93.9 | > 1.33 |  |  |  |  |  |  |  |  |  |  |  |  | 
C=C(C)[C@@H]1CC[C@@]2(C)C1C1CCC3[C@@]4(C)CC[C@H](O)C(C)(C)C4CC[C@@]3(C)[C@]1(C)C[C@@H]2O (stereo partly drawn) [Compound 3, 16β-hydroxylupeol] | 15.4 ± 0.96 | 52.6 ± 5.11 |  | 20.8 ± 1.53 | 9.12 ± 1.02 | 35.6 ± 3.29 | 5.76 | 3.41 | 2.53 | < 85 | 1.47 |  |  |  |  |  |  |  |  | 
CC(=O)O[C@H]1CC[C@]2(C)[C@H]3CC=C4[C@@H]5CC(C)(C)CC[C@]5(C)CC[C@@]4(C)[C@]3(C)CC[C@H]2C1(C)C [Compound 4, β-amyrin acetate] | > 85.5 | > 85.5 |  | > 85.5 | > 85.5 | > 85.5 |  |  |  |  |  |  |  |  |  |  |  |  |  | 
C=C(C)[C@@H]1CC[C@]2(C)CC[C@]3(C)[C@H](CC[C@@H]4[C@@]5(C)CC[C@H](OC(C)=O)C(C)(C)[C@@H]5CC[C@]43C)[C@@H]12 [Compound 5, lupeol acetate] | > 85.5 | > 85.5 |  | > 85.5 | 10.7 ± 0.75 | > 85.5 | > 8.00 |  |  |  |  |  |  |  |  |  |  |  |  | 
CO[C@H]1[C@H](O)[C@@H](O)[C@@H](O)[C@@H](O)[C@@H]1O [Compound 6, 5-O-methyl-myo-inositol or sequoyitol] | > 206 | > 206 |  | > 206 | 167 ± 12 | 45.1 ± 3.42 | > 1.24 |  |  |  | > 4.57 |  |  |  |  |  |  |  |  | 
COc1cc(O)c2c(=O)c(O[C@H]3OC(C)[C@@H](O)C(O)[C@H]3O)c(-c3ccc(O)c(O)c3)oc2c1 (stereo partly drawn) [Compound 7, rhamnitrin or 7-O-methylquercetin 3-O-rhamnoside] | > 86.6 | 52.3 |  | > 86.6 | 60.9 ± 5.39 | > 86.6 | 0.86 |  |  |  |  |  |  |  |  |  |  |  |  | 
COc1cc(O)c2c(=O)c(O[C@H]3OC(C)[C@@H](O)C(O)[C@H]3O)c(-c3cc(O)c(O)c(O)c3)oc2c1 (stereo partly drawn) [Compound 8, europetin 3-O-rhamnoside or 7-O-methylmyricetin 3-O-rhamnoside] | > 83.7 | > 83.7 |  | > 83.7 | 16.7 ± 1.81 | > 83.7 | > 5.00 |  |  |  |  |  |  |  |  |  |  |  |  | 
COc1cc2c(c(O)c1CC=C(C)C)C(=O)[C@H](O)[C@@H](c1ccc(O)cc1)O2 [Compound 9, thonningiol] | 5.65 ± 0.03 | 45.5 ± 4.17 | 8.6 | 5.28 ± 0.06 | 0.36 ± 0.01 | 3.88 ± 0.04 | 124.59 | 8.05 |  | < 10 | 11.72 | 28.3 | 11.6 | Go/G1 | 2.67 | 4.46 | 11.2% | 3.97 |  | 
CC1(C)C=Cc2c(O)ccc(C3COc4cc(O)cc(O)c4C3=O)c2O1 (stereo not drawn) [Compound 10, glyasperin F] | 20.9 ± 1.64 | > 113 | > 6.42 | 17.6 ± 1.39 | 11.1 ± 0.88 | 16.9 ± 1.2 | > 10.14 | > 5.41 |  | < 85 | > 6.69 |  |  |  |  |  |  |  |  | 
C=C(CO)C1Cc2cc3c(cc2O1)OCC1c2ccc(O)cc2OC31 (stereo not drawn) [Compound 11, seputhecarpan B] | 57.9 ± 3.89 | > 118 | > 1.4 | 84.4 ± 6.32 | 11.9 ± 0.94 | 61.9 ± 4.2 | > 9.93 | > 2.04 |  | < 85 | > 1.91 |  |  |  |  |  |  |  |  | 
C=C(CO)C1Cc2cc3c(cc2O1)OCC1c2ccc(OC)cc2OC31 (stereo not drawn) [Compound 12, seputhecarpan C] | 37.8 ± 1.76 | > 114 | > 1.69 | 67.3 ± 3.98 | 13.3 ± 0.67 | 76.7 ± 7.24 | > 8.55 | > 3.00 |  | < 85 | > 1.48 |  |  |  |  |  |  |  |  | 
C=CC(C)(C)c1cc2c(cc1O)OCC1c3ccc(OC)cc3OC21 (stereo not drawn) [Compound 13, seputhecarpan D] | 10.8 ± 1.11 | > 118 | > 11.3 | 10.5 ± 0.48 | 9.78 ± 0.55 | 67.7 ± 5.18 | > 12.10 | > 10.97 |  |  |  | 31.1 | 7.6 | Go/G1 | 3.47 | 3.78 | 12.9% | 4.66 | < 10 | 
CC1(C)C=Cc2c(cc(O)c3c(=O)c4cc5c(c(O)c4oc23)OC(C)(C)C=C5)O1 [Compound 14, rheediaxanthone A] | > 102 | 80.3 ± 5.42 | 35.5 | 3.15 ± 0.01 | > 102 | 14.6 ± 0.93 |  |  |  |  | 5.50 |  |  |  |  |  |  |  |  | 
COc1cccc2c1C(=O)c1c(O)c3c(c(O)c1C2=O)C[C@@](O)(C(=O)CO)C[C@@H]3O[C@H]1C[C@H](N)[C@H](O)[C@H](C)O1 [Doxorubicin, doxorubicin, reference compound] | 0.37 ± 0.05 | 0.59 ± 0.01 |  |  | 0.35 ± 0.05 | 0.18 ± 0.03 |  |  |  |  |  | 60 | 27.6 |  | 1.3 | 2.40 | up to 26.0% |  |  | 0.72 ± 0.13
